According to patent US11667602B2, “Compounds and their use” (AstraZeneca AB, priority 2020, dated 2023):

Assays:
human RXFP1 [1] = molecular target: T1, human RXFP1 (Homo sapiens, UniProt Q9HBX9); experiment: Human RXFP1 cGMP Production Assay (Test G); type: cell-based; set-up: expressed in transfected cells; conditions: HEK293s cells stably transfected with human RXFP1; Green GENIe cGMP biosensor, area under curve 0 to 90 min
T1 sequence (Q9HBX9 1-757): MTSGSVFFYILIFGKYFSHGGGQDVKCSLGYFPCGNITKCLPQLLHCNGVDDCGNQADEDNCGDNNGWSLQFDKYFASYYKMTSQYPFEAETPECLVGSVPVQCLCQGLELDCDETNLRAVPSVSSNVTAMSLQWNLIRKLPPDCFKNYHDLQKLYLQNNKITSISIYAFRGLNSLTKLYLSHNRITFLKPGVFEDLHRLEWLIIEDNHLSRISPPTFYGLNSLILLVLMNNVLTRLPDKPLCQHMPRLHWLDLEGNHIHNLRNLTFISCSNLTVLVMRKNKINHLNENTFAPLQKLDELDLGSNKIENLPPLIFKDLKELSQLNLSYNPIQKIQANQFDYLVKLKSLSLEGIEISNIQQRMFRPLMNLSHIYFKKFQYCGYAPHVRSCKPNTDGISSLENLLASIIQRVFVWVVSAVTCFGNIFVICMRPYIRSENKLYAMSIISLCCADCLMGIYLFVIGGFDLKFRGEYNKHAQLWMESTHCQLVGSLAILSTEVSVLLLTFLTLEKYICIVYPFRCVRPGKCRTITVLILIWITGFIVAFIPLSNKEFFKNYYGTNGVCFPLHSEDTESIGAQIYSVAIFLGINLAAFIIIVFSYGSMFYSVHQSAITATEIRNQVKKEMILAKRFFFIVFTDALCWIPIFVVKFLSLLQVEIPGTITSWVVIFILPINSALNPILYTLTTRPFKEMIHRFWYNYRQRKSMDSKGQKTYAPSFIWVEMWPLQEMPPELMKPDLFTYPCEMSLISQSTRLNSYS
From the text: Human RXFP1 cGMP Production Assay (Test G)
To profile compounds for RXFP1 agonist activity with respect to cGMP production, the Green GENIe cGMP Assay (Montana Molecular; catalogue number D800G) was employed. The assay is based on an nmNeonGreen fusion protein fluorescent biosensor delivered to mammalian cells in a BacMam vector. Fluorescence is reduced when cGMP is bound to the biosensor.
Cells: HEK293s cells stably transfected with human RXFP1 in pIRESneo3 was employed.
Day 1 • 1. Cells were splitted one day ahead of transduction and seeded to 63 000 cells/cm2 in DMEM medium with 10% FBS without antibiotics in a tissue culture flask.
Day 2 • 2. […] A viral transduction mastermix was prepared by mixing reagents in the following proportions for a single well: • 6 μL GENIe BacMAM vector • 0.2 μL 500 mM sodium butyrate • 13.8 μL DMEM medium with 10% FBS • 20 μL total volume • 5. Cells and transduction mastermix were mixed in proportions 30 μL cells and 20 μL mastermix for a single well. • 6. […] Plate was incubated in the dark at 37° C., 5% CO2 for 24 h.
Day 3 • 8. Medium was removed from plates using a Bluewasher (BluCatBio). • 9. 20 μL assay buffer was added with a Multidrop Combi (ThermoFisher). • 10. Plate was incubated in the dark at room temperature for 30 min prior to assaying. • 11. Plates were assayed using a FLIPR Tetra (Molecular Devices): 10 μL compound diluted with assay buffer was added to each well by the FLIPR Tetra and measuring green fluorescence over time for up to 3 h.
Data was processed using Screener software (Genedata A G). After subtraction of background fluorescence (before addition of compounds), area under curve values from 0 to 90 min after compound addition was used for calculation of responses.

[2] = Human Plasma Protein Binding (Test B); type: in vitro ADME; conditions: fraction unbound (fu)
Procedure, shortened: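 Values given as % free (fu) in human plasma, using the method of Wernevik et al. (2020). For compounds tested more than once, the arithmetic mean is given.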

[3] = Rat Hepatocyte Stability (Test E); type: in vitro ADME; conditions: rat, hepatocytes, geometric mean if run multiple times
Procedure, shortened: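 Intrinsic clearance in rat hepatocytes, expressed as μl/min/10^6 cells, following the literature integrated DMPK panel method. Repeat determinations combined as geometric mean.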

human RXFP1 [4] = molecular target: T1, human RXFP1; experiment: RXFP1 Hu cAMP (Test A); type: cell-based; set-up: expressed in transfected cells; host or cells: Jump-In T-REx CHO-K1 cells (ThermoFisher), induced with 10 ng/ml doxycycline for 24 h; conditions: RXFP1 Hu cAMP; for EC50: read-out: Test A EC50
Procedure, shortened: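 Competitive HTRF cAMP readout (2 h, room temperature) in CHO-K1 cells stably expressing human RXFP1, induced with 10 ng/ml doxycycline for 24 h; IBMX 0.5 mM final.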

EC50 (human RXFP1 [1]) | Test B Human Plasma Protein Binding (% free) [2] | hepatocyte CLint [3] | Test A Sinf (human RXFP1 [4]) | EC50 (human RXFP1 [4]) | Compound
19 nM | 0.38 % free | 17 µL/min/1e6 cells | 109% | 5.3 nM | COc1cc(F)c(O[C@H]2CC[C@@H](C(=O)O)CC2)cc1C(=O)N[C@@H]1[C@H]2CC[C@H](C2)[C@@H]1C(=O)Nc1ccc(F)c(S(F)(F)(F)(F)F)c1 [Example 433]
300 nM | 0.060 % free | 16 µL/min/1e6 cells | 98% | 140 nM | COc1cc(F)c(-c2ccc(C(=O)O)cc2)cc1C(=O)N[C@H]1[C@@H](C(=O)Nc2cccc(S(=O)(=O)C(F)(F)F)c2)[C@@H]2C=C[C@H]1C2 (single isomer, unassigned) [Example 552]
9.3 nM | 1 % free | 35 µL/min/1e6 cells | 108% | < 2 nM | COc1cc(F)c(O[C@H]2CC[C@@](C)(C(=O)O)CC2)cc1C(=O)N[C@@H]1[C@H]2CC[C@H](C2)[C@@H]1C(=O)Nc1cccc(S(=O)(=O)C(F)(F)F)c1 [Example 208, (1S,4s)-4-(2-Fluoro-4-methoxy-5-(((1S,2R,3S,4R)-3-((3-((trifluoromethyl)sulfonyl)phenyl)carbamoyl)bicyclo[2.2.1]heptan-2-yl)carbamoyl)phenoxy)-1-methylcyclohexane-1-carboxylic acid]
3.7 nM | <0.23 % free | 23 µL/min/1e6 cells | 114% | 0.41 nM | COc1cc(F)c(O[C@H]2CC[C@@](C)(C(=O)O)CC2)cc1C(=O)N[C@@H]1[C@H]2CC[C@H](C2)[C@@H]1C(=O)Nc1ccc(F)c(S(F)(F)(F)(F)F)c1 [Example 353]
